Structures are written as SMILES.

In this test the target is hDGAT2 (Homo sapiens (Human), UniProt Q96PD7). The experiment in a line: DGAT2 Enzymatic Activity Assay (triolein formation, LC/MS/MS). Type of test: biochemical. Particulars: Sf-9 membrane prep expressing hDGAT2; 25 μM diolein, 10 μM oleoyl-CoA; room temperature; read-out: IC50 values for inhibition of DGAT2. The procedure: In Vitro DGAT2 ASSAYS and Determination of IC50 Values for DGAT2 Inhibitors
Chain of hDGAT2 (Q96PD7 whole entry): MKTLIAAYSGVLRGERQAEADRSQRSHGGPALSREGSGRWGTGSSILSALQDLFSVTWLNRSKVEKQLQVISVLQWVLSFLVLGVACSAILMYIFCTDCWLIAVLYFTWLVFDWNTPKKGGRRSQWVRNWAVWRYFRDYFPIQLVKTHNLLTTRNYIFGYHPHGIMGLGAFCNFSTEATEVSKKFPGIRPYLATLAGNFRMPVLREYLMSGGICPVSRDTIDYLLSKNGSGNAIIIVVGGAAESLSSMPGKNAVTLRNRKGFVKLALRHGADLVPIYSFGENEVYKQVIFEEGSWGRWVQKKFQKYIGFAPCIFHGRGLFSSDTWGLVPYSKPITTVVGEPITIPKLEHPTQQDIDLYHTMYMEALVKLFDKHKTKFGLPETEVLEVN
Insect Cell Expression and Membrane Preparation
Sf-9 insect cells were maintained in Grace's insect cell culture medium with 10% heated-inactivated fetal bovine serum, 1% Pluronic F-68 and 0.14 μg/ml Kanamycine sulfate in Erlenmeyer flasks at 28° C. in a shaker incubator. After infection with untagged hDGAT2 baculovirus at multiplicity of infection (MOI) 0.1 for 48 hours, cells were harvested. Cell pellets were suspended in buffer containing 10 mM Tris-HCl (pH 7.5), 1 mM EDTA (pH 8.0), 250 mM sucrose and Complete Protease Inhibitor Cocktail (Roche Diagnostics Corp., Indianapolis, Ill.), and sonicated on ice. Membrane fractions were isolated by ultracentrifugation (100,000× g pellet), resuspended in the same buffer, and frozen (−80° C.) for later use. The protein concentration was determined with the BCA Protein Assay kit (Pierce Biotechnology Inc., Rockford, Ill.). Expression of protein levels was analyzed by immunoblotting with goat polyclonal DGAT2 antibody C-15 and donkey anti-goat IgG HRP (Santa Cruz Biotechnology, Inc., Santa Cruz, Calif.) followed by detection with ECL reagent (GE Healthcare, Piscataway, N.J.).
LC/MS/MS analyses were performed using Thermal Fisher's LX4-TSQ Vantage system. This system consists of an Agilent binary high-performance liquid chromatography (HPLC) pumps and a TSQ Vantage triple quadrupole MS/MS instrument. For each sample, 2 μL samples from the top organic layer of in-plate liquid-liquid extraction were injected onto a Thermo Betabasic C4 column (2.1 mm×20 mm, 5 μm particle size). The samples were then eluted using the following conditions; mobile phase: methanol/water with 0.1% ammonium format=92/8 (v/v), flow rate: 1 mL/min, temperature: 25° C. Data was acquired in positive mode using a heated electrospray ionization (HESI) interface. The operational parameters for the TSQ Vantage MS/MS instrument were a spray voltage of 3000 V, capillary temperature of 280° C., vaporizer temperature 400° C., shealth gas 60 arbitrary unit, Aux gas 40 arbitrary units, S-lens 113 and collision gas 0.16 Pascals. […] (SRM) chromatograms of triolein (Q1: 902.9>Q3:602.3) and internal standard (Q1: 902.9>Q3:602.3) were collected for 40 sec. The peak area was integrated by Xcalibur Quan software. The ratio between the triolein generated in the reaction and spiked in internal standard were used to generate percentage inhibition and IC50 values. Compound percentage inhibition was calculated by the following formula: Inhibition %=1−[(compound response−low control)/(high control−low control)]×100%. Potent compounds were titrated and IC50 were calculated by 4 parameter sigmoidal curve fitting formula.
DGAT2 Enzymatic Activity Assay
DGAT2 activity was determined by measuring the amount of enzymatic product triolein (1,2,3-Tri(cis-9-octadecenoyl)glycerol) using the membrane prep mentioned above. The assay was carried out in deep well 384 plates in a final volume of 40 μL at room temperature. The assay mixture contained the following: assay buffer (100 mM Tris·Cl, pH 7.0, 20 mM MgCl2, 5% ethanol), 25 μM of diolein, 10 μM of oleoyl-CoA and 10 ng/μL of DGAT2 membrane.
Turning to `CC(C)(C)NC(=O)N1CCc2c(-c3cccc(C(F)(F)F)c3)ccc(C(=O)NCCN3CCCc4ccccc43)c2C1` [Example 43, N^2-(tert-butyl)-N^8-(2-(3,4-dihydroquinolin-1(2H)-yl)ethyl)-5-(3-(trifluoromethyl)phenyl)-3,4-dihydroisoquinoline-2,8(1H)-dicarboxamide], the 50% inhibitory concentration (IC50) (as a rule, the concentration needed to halve the response being measured) worked out at 1.14 µM.
As for `CC(CNC(=O)c1ccc(-c2cccc(C(F)(F)F)c2)c2c1CN(C(=O)NC(C)(C)C)CC2)n1cccn1` (stereo not drawn) [Example 44, N^8-(2-(1H-pyrazol-1-yl)propyl)-N^2-(tert-butyl)-5-(3-(trifluoromethyl)phenyl)-3,4-dihydroisoquinoline-2,8(1H)-dicarboxamide], the figure is 1.2 µM.
As for `CC(CNC(=O)c1ccc(-c2cccc(C(F)(F)F)c2)c2c1CN(C(=O)NC(C)(C)C)CC2)c1ncco1` (stereo not drawn) [Example 45, N^2-(tert-butyl)-N^8-(2-(oxazol-2-yl)propyl)-5-(3-(trifluoromethyl)phenyl)-3,4-dihydroisoquinoline-2,8(1H)-dicarboxamide], the figure is 1.28 µM; as for `CC(CNC(=O)c1ccc(-c2cccc(C(F)(F)F)c2)c2c1CN(C(=O)NC(C)(C)C)CC2)c1ccno1` (stereo not drawn) [Example 46, N^2-(tert-butyl)-N^8-(2-(isoxazol-5-yl)propyl)-5-(3-(trifluoromethyl)phenyl)-3,4-dihydroisoquinoline-2,8(1H)-dicarboxamide], 1.3 µM.
Turning to `Cc1nnc(CCNC(=O)c2ccc(-c3cccc(C(F)(F)F)c3)c3c2CN(C(=O)NC(C)(C)C)CC3)[nH]1` [Example 47, N^2-(tert-butyl)-N^8-(2-(5-methyl-4H-1,2,4-triazol-3-yl)ethyl)-5-(3-(trifluoromethyl)phenyl)-3,4-dihydroisoquinoline-2,8(1H)-dicarboxamide], the IC50 turned out to be 1.2 µM.
As for `CC(C)(C)NC(=O)N1CCc2c(-c3cccc(C(F)(F)F)c3)ccc(C(=O)NCCn3cncn3)c2C1` [Example 48, N^8-(2-(1H-1,2,4-triazol-1-yl)ethyl)-N^2-(tert-butyl)-5-(3-(trifluoromethyl)phenyl)-3,4-dihydroisoquinoline-2,8(1H)-dicarboxamide], the figure is 1.41 µM.
In the case of `CC(C)(C)NC(=O)N1CCc2c(-c3cccc(C(F)(F)F)c3)ccc(C(=O)NCCc3cn4cccnc4n3)c2C1` [Example 49, N^2-(tert-butyl)-N^8-(2-(imidazo[1,2-a]pyrimidin-2-yl)ethyl)-5-(3-(trifluoromethyl)phenyl)-3,4-dihydroisoquinoline-2,8(1H)-dicarboxamide], the IC50 came out at 1.57 µM.
Consider `Cc1noc(C)c1CCNC(=O)c1ccc(-c2cccc(C(F)(F)F)c2)c2c1CN(C(=O)NC(C)(C)C)CC2` [Example 50, N^2-(tert-butyl)-N^8-(2-(3,5-dimethylisoxazol-4-yl)ethyl)-5-(3-(trifluoromethyl)phenyl)-3,4-dihydroisoquinoline-2,8(1H)-dicarboxamide], for which the 50% inhibitory concentration (IC50) was 1.97 µM.
`CC(C)(C)NC(=O)N1CCc2c(-c3cccc(C(F)(F)F)c3)ccc(C(=O)NCc3nnc4n3CCC4)c2C1` [Example 51, N^2-(tert-butyl)-N^8-((6,7-dihydro-5H-pyrrolo[2,1-c][1,2,4]triazol-3-yl)methyl)-5-(3-(trifluoromethyl)phenyl)-3,4-dihydroisoquinoline-2,8(1H)-dicarboxamide]: the IC50 was determined as 2.03 µM.
The figure for `CC(C)(C)NC(=O)N1CCc2c(-c3cccc(C(F)(F)F)c3)ccc(C(=O)NCCc3ccc(C(F)(F)F)cc3)c2C1` [Example 52, N^2-(tert-butyl)-N^8-(4-(trifluoromethyl)phenethyl)-5-(3-(trifluoromethyl)phenyl)-3,4-dihydroisoquinoline-2,8(1H)-dicarboxamide] is 2.42 µM.
As for `CC(C)(C)NC(=O)N1CCc2c(-c3cccc(C(F)(F)F)c3)ccc(C(=O)Nc3nonc3-c3nc4ccccc4[nH]3)c2C1` [Example 53, N^8-(4-(1H-benzo[d]imidazol-2-yl)-1,2,5-oxadiazol-3-yl)-N^2-(tert-butyl)-5-(3-(trifluoromethyl)phenyl)-3,4-dihydroisoquinoline-2,8(1H)-dicarboxamide], the IC50 was found to be 3.34 µM.
As for `CC(C)(C)NC(=O)N1CCc2c(-c3cccc(C(F)(F)F)c3)ccc(C(=O)NCCc3cnc4ccccn34)c2C1` [Example 54, N^2-(tert-butyl)-N^8-(2-(imidazo[1,2-a]pyridin-3-yl)ethyl)-5-(3-(trifluoromethyl)phenyl)-3,4-dihydroisoquinoline-2,8(1H)-dicarboxamide], the figure is 3.72 µM.
Consider `CC(C)(C)NC(=O)N1CCc2c(-c3cccc(OC(F)(F)F)c3)ccc(C(=O)NCc3cn4cccnc4n3)c2C1` [Example 55, N^2-(tert-butyl)-N^8-(imidazo[1,2-a]pyrimidin-2-ylmethyl)-5-(3-(trifluoromethoxy)phenyl)-3,4-dihydroisoquinoline-2,8(1H)-dicarboxamide], for which the IC50 worked out at 2.15 µM.
The figure for `Cc1nccn1CCNC(=O)c1ccc(-c2cccc(C(F)(F)F)c2)c2c1CN(C(=O)NC(C)(C)C)CC2` [Example 56, N^2-(tert-butyl)-N^8-(2-(2-methyl-1H-imidazol-1-yl)ethyl)-5-(3-(trifluoromethyl)phenyl)-3,4-dihydroisoquinoline-2,8(1H)-dicarboxamide] is 7.95 µM; for `CC(C)(C)NC(=O)N1CCc2c(-c3cccc(OC(F)(F)F)c3)ccc(C(=O)N3CCCCC3c3ccccc3)c2C1` (stereo not drawn) [Example 57, N-(tert-butyl)-8-(2-phenylpiperidine-1-carbonyl)-5-(3-(trifluoromethoxy)phenyl)-3,4-dihydroisoquinoline-2(1H)-carboxamide] it is 8.76 µM.
As for `CC(C)(C)NC(=O)N1CCc2c(-c3cccc(C(F)(F)F)c3)ccc(C(=O)NCCc3nc4ccc(Cl)cc4[nH]3)c2C1` [Example 58, N^2-(tert-butyl)-N^8-(2-(6-chloro-1H-benzo[d]imidazol-2-yl)ethyl)-5-(3-(trifluoromethyl)phenyl)-3,4-dihydroisoquinoline-2,8(1H)-dicarboxamide], the figure is 0.0167 µM; as for `COc1ccc2nc(CCNC(=O)c3ccc(-c4cccc(C(F)(F)F)c4)c4c3CN(C(=O)NCC(F)(F)F)CC4)[nH]c2c1` [Example 59, N^8-(2-(6-methoxy-1H-benzo[d]imidazol-2-yl)ethyl)-N^2-(2,2,2-trifluoroethyl)-5-(3-(trifluoromethyl)phenyl)-3,4-dihydroisoquinoline-2,8(1H)-dicarboxamide], 0.0829 µM.
As for `Cc1nnc(CCNC(=O)c2ccc(-c3cccc(C(F)(F)F)c3)c3c2CN(C(=O)NC(C)(C)C)CC3)[nH]1` [Example 60, N^2-(tert-butyl)-N^8-(2-(5-methyl-4H-1,2,4-triazol-3-yl)ethyl)-5-(3-(trifluoromethyl)phenyl)-3,4-dihydroisoquinoline-2,8(1H)-dicarboxamide], the figure is 1.35 µM; as for `CC(NC(=O)c1ccc(-c2cccc(C(F)(F)F)c2)c2c1CN(C(=O)NC(C)(C)C)CC2)c1nnc[nH]1` (stereo not drawn) [Example 62, N^8-(1-(4H-1,2,4-triazol-3-yl)ethyl)-N^2-(tert-butyl)-5-(3-(trifluoromethyl)phenyl)-3,4-dihydroisoquinoline-2,8(1H)-dicarboxamide], 3.84 µM.
As for `CC(C)(C)NC(=O)N1CCc2c(-c3cccc(C(F)(F)F)c3)ccc(C(=O)NC3(c4ccccn4)CC3)c2C1` [Example 63, N^2-(tert-butyl)-N^8-(1-(pyridin-2-yl)cyclopropyl)-5-(3-(trifluoromethyl)phenyl)-3,4-dihydroisoquinoline-2,8(1H)-dicarboxamide], the IC50 is 2.06 µM.
As for `CC(NC(=O)c1ccc(-c2cccc(C(F)(F)F)c2)c2c1CN(C(=O)NC(C)(C)C)CC2)c1cn2ncsc2n1` (stereo not drawn) [Example 64, N^2-(tert-butyl)-N^8-(1-(imidazo[2,1-b][1,3,4]thiadiazol-6-yl)ethyl)-5-(3-(trifluoromethyl)phenyl)-3,4-dihydroisoquinoline-2,8(1H)-dicarboxamide], the figure is 0.39 µM.
